In patent publication US20160115540A1, “PRODRUGS AND DRUGS” (Biogen MA Inc., priority 2013, published 2016):
Counter-ions that a name gives are not always drawn.

Tested on: spleen
Test: Transcriptional profiling, multi-dosing regimen, naïve mice: spleen
Type: in vivo
Conditions: for Number of differentially expressed genes identified: Spleen: Table 13: Naïve, Single Dose (so in the source), 12 h after last dosing
Protocol: In vivo, DMF is rapidly metabolized to monomethyl fumarate (MMF). […] Animals were exposed to CO2 and whole blood collected via cardiac puncture. Two 100 μl aliquots of whole blood were collected in 1.5 mL microcentrifuge tubes and snap frozen in liquid nitrogen. Peripheral (liver, spleen, kidney and jejunum) and CNS brain (cerebellum, hippocampus, striatum and cortex) tissues were harvested and snap frozen in liquid nitrogen, with special care taken to collect tissues of similar size and from the same location. All samples were stored at -80° C. until RNA extraction was conducted. For RNA preparation, frozen tissues were placed in 2 mL RNAse-free 96-well blocks with 1.5 mL QIAzol Lysis Reagent (QIAgen) and a 3.2 mm stainless steel bead (BioSpec Products, Bartlesville, Okla.). Tissues were disrupted for four cycles of 45 seconds in a Mini-Beadbeater (Biospec Products). RNA was extracted in chloroform and the aqueous phase was mixed with an equal volume of 70% ethanol. Extracted RNA was applied to RNeasy 96 plates and purified by the spin method according to the manufacturer's protocol (RNeasy 96 Universal Tissue Protocol, QIAgen, Hilden Germany). […] Two micrograms of biotin labeled […] probe were hybridized to Affymetrix GeneChip Affymetrix HT_MG-430_PM plate arrays with modified conditions as described in […] et al. Washing and staining of the hybridized arrays were completed as described in the GeneChip Expression analysis technical manual for HT plate arrays using the Genechip® Array Station (Affymetrix, Santa Clara, Calif.) with modifications as described in […] et al. The processed GeneChip® plate arrays were scanned using GeneTitan scanner (Affymetrix, Santa Clara, Calif.). Affymetrix scans were subject to quality control (QC) measures. These tests included a visual inspection of the distribution of raw signal intensities and an assessment of RNA degradation, relative log expression (RLE), and normalized unsealed standard error (NUSE). All sample scans that passed these QC metrics were included in the analysis. All CEL files were subjected to GC-content-based Robust Multi-array Average (GCRMA) normalization (version 2.20.0) (Irizarry R A, et al. Nucleic Acids Res 2003; 31:e15; Li C, et al. […] Stat Appl Genet Mol Biol 2004; 3:Article3). […] Springer Science+Business Media 2005). Changes in gene expression were studied by applying a linear modeling approach to fit gene expression levels according to the defined groups of samples (e.g. DMF-, MMF-, and Vehicle-treated animals) and Bayesian posterior error analysis as implemented by Smyth (Smyth G K. Stat Appl Genet Mol Biol 2004; 3:Article3). The comparisons considered included: DMF-vs-MMF, DMF-vs-Vehicle, and MMF-vs-Vehicle. […] Very few DEGs are observed in blood and tissues derived from the central nervous system (brain, cerebellum, cortex, striatum, and spinal cord).

[1] = SPLEEN, 100DMF-vs-100MMF, naïve multidose
[2] = SPLEEN, 100DMF-vs-Veh, naïve multidose
[3] = SPLEEN, 100MMF-vs-Veh, naïve multidose

COC(=O)/C=C/C(=O)OC [DMF, dimethyl fumarate]
FC 4931431B13Rik (1430416_PM_at) [1]: 2.18
FC AU015536 (1445025_PM_at) [1]: 1.55
FC Adap2 (1425639_PM_at) [1]: 1.60
FC Agtr1a (1436739_PM_at) [1]: 1.61
FC Ano1 (1426571_PM_at) [1]: 1.70
FC Ano1 (1459713_PM_s_at) [1]: 1.55
FC Apoc1 (1417561_PM_at) [1]: 1.74
FC Ccbe1 (1439327_PM_at) [1]: 2.07
FC Ccdc80 (1424187_PM_at) [1]: 1.74
FC Ccl3 (1419561_PM_at) [1]: 1.81
FC Ccl6 (1420249_PM_s_at) [1]: 1.88
FC Ccr3 (1422957_PM_at) [1]: 2.25
FC Cd300ld (1424832_PM_at) [1]: 1.82
FC Cdr2l (1445027_PM_at) [1]: 1.57
FC Clec4n (1419627_PM_s_at) [1]: 1.52
FC Clec4n (1425951_PM_a_at) [1]: 1.83
FC Dmd (1417307_PM_at) [1]: 1.59
FC Ear1 (1421802_PM_at) [1]: 3.89
FC Ear1 /// Ear12 /// Ear2 /// Ear3 (1422411_PM_s_at) [1]: 1.79
FC Ear2 (1449846_PM_at) [1]: 1.51
FC Ear3 (1422412_PM_x_at) [1]: 1.80
FC Emr4 (1424998_PM_at) [1]: 1.77
FC Ercc61 (1424766_PM_at) [1]: −1.66
FC Fam63a (1438321_PM_x_at) [1]: −1.52
FC Fcgr1 (1417876_PM_at) [1]: 1.61
FC Fcna (1418243_PM_at) [1]: 1.57
FC Hs6st2 (1450047_PM_at) [1]: 1.64
FC Kcnj16 (1435094_PM_at) [1]: 1.69
FC Klrb1a (1450296_PM_at) [1]: 1.78
FC Lphn3 (1458742_PM_at) [1]: 1.60
FC Ncr1 (1422089_PM_at) [1]: 1.54
FC Niacr1 (1419721_PM_at) [1]: 1.65
FC P2ry12 (1431724_PM_a_at) [1]: 1.66
FC Pla2g7 (1430700_PM_a_at) [1]: 1.51
FC Ptplad2 (1450967_PM_at) [1]: 1.56
FC Rab31 (1431691_PM_a_at) [1]: 1.73
FC Rnf144b (1425282_PM_at) [1]: 1.86
FC Skiv2l (1422584_PM_at) [1]: −1.52
FC St18 (1455123_PM_at) [1]: 1.75
FC Sult1a1 (1427345_PM_a_at) [1]: 1.51
FC Tmem26 (1434583_PM_at) [1]: 1.57
FC Ubn2 (1430056_PM_at) [1]: −1.62
FC Vcam1 (1415989_PM_at) [1]: 1.50
FC Vcam1 (1436003_PM_at) [1]: 1.62
FC Vcam1 (1451314_PM_a_at) [1]: 1.61
FC Vnn3 (1420723_PM_at) [1]: 1.54
FC probe 1420250_PM_at (no gene symbol) [1]: 1.50
FC probe 1421534_PM_at (no gene symbol) [1]: 1.57
FC probe 1429277_PM_at (no gene symbol) [1]: 1.59
FC probe 1442323_PM_at (no gene symbol) [1]: −1.55
FC probe 1444189_PM_at (no gene symbol) [1]: 1.71
FC probe 1445379_PM_at (no gene symbol) [1]: −1.51
FC Aox1 (1419435_PM_at) [2]: 1.66
FC Gsta3 (1423436_PM_at) [2]: 1.86
FC Gstm1 (1416416_PM_x_at) [2]: 1.57
FC Gstm1 (1448330_PM_at) [2]: 1.61
Number of differentially expressed genes identified: Spleen (100 mpk DMF-vs-90 mpk MMF): 52
Number of differentially expressed genes identified: Spleen (100 mpk DMF-vs-Vehicle): 4
CCR3, Klrb1c, NCR1 and CCL3L1 expression (downstream of IL2), DMF vs MMF (spleen, multi-dosed naïve mice): up-regulated
FCGR1A, ST18, CCL3L1 and VCAM1 expression (downstream of NFkB), DMF vs MMF (spleen, multi-dosed naïve mice): up-regulated

COC(=O)/C=C/C(=O)O [MMF, monomethyl fumarate]
FC 4931431B13Rik (1430416_PM_at) [3]: −1.94
FC 5430404G13Rik (1453540_PM_at) [3]: −1.55
FC 5730403M16Rik (1434343_PM_at) [3]: 1.51
FC Ccdc80 (1424187_PM_at) [3]: −1.64
FC Ccl3 (1419561_PM_at) [3]: −1.82
FC Ccr3 (1422957_PM_at) [3]: −2.37
FC Cd300ld (1424832_PM_at) [3]: −1.85
FC Clec4a2 (1422013_PM_at) [3]: −1.50
FC Clec4a2 (1425406_PM_at) [3]: −1.64
FC Clec4a3 (1429954_PM_at) [3]: −1.58
FC Clec4n (1425951_PM_a_at) [3]: −1.81
FC Csmd3 (1438272_PM_at) [3]: −1.80
FC Defb1 (1419491_PM_at) [3]: 1.55
FC Dmd (1417307_PM_at) [3]: −1.56
FC Ear3 (1422412_PM_x_at) [3]: −1.73
FC Emr4 (1424998_PM_at) [3]: −1.75
FC Fam63a (1438321_PM_x_at) [3]: 1.54
FC Fcgr1 (1417876_PM_at) [3]: −1.84
FC Fgfrl1 /// LOC100046239 (1447878_PM_s_at) [3]: 1.53
FC Gzma (1417898_PM_a_at) [3]: −1.64
FC Hpgds (1421492_PM_at) [3]: −1.55
FC Hs6st2 (1450047_PM_at) [3]: −1.75
FC Iigp1 (1419043_PM_a_at) [3]: −1.72
FC Lrp4 (1426288_PM_at) [3]: −1.51
FC Lrrc50 (1421974_PM_at) [3]: 1.53
FC Niacr1 (1419721_PM_at) [3]: −1.91
FC Ptplad2 (1450967_PM_at) [3]: −1.55
FC Rab31 (1431691_PM_a_at) [3]: −1.62
FC Rnf144b (1425282_PM_at) [3]: −1.71
FC Stfa2l1 (1442339_PM_at) [3]: −2.07
FC Stx1a (1437390_PM_x_at) [3]: 1.53
FC Tmem26 (1434583_PM_at) [3]: −1.67
FC Ubn2 (1430056_PM_at) [3]: 1.64
FC Ucp2 (1444566_PM_at) [3]: 1.54
FC Vnn3 (1420723_PM_at) [3]: −1.59
FC probe 1429277_PM_at (no gene symbol) [3]: −1.60
FC probe 1431225_PM_at (no gene symbol) [3]: 1.58
FC probe 1439831_PM_at (no gene symbol) [3]: −1.51
FC probe 1442323_PM_at (no gene symbol) [3]: 1.51
FC probe 1447204_PM_at (no gene symbol) [3]: −1.95
FC probe 1449653_PM_at (no gene symbol) [3]: −1.57
FC probe 1457306_PM_at (no gene symbol) [3]: 2.12
Number of differentially expressed genes identified: Spleen (90 mpk MMF-vs-Vehicle): 42
